{"source": "paper PMC8703317", "about": "“2-(Piperidin-4-yl)acetamides as Potent Inhibitors of Soluble Epoxide Hydrolase with Anti-Inflammatory Activity” (Pharmaceuticals, 2021)", "key": {"[1]": {"system": "SH-SY5Y neuroblastoma cells", "test": "cytotoxicity by propidium iodide staining in SH-SY5Y cells", "assay_type": "cell-based", "details": "24 h incubation, up to 100 µM (highest concentration tested), vehicle DMSO 0.1%, n = 10–12", "protocol": "Cytotoxicity was evaluated in the human neuroblastoma SH-SY5Y cell line (ATCC Number: CRL-2266). Cells were cultured in minimum essential medium/HAM’s-F12 (1:1, v/v) medium, supplemented with non-essential amino acids, L-glutamine 1 mM, gentamycin 50 µM and 10% heat inactivated fetal bovine serum (FBS). For experiments, the cells were seeded at 3 × 10^5 cells/mL (100 µL/well) in 96-well plates. […] DMSO 0.1% was used as vehicle. Treated cultures were returned to the incubator for a 24 h test exposure. One hour before termination, cell death was measured by PI staining. Briefly, PI (Molecular Probes) at the final concentration of 7.5 µg/mL was added to the cells and incubated for 1 h. PI enters into cells with damaged membrane and binds to DNA yielding intense red fluorescence. Fluorescence was measured in a SAFAS FLX-Xenius microplate reader (Monaco) at 530 nm excitation and 645 nm emission. Percentage of cell death for a given fluorescence value (Ft) was calculated according to the values given by Triton X100 killed cells (Fmax; 100% cell death) and vehicle treated cells (Fmin; 0% cell death) [% = ((Ft-Fmin)/(Fmax-Fmin)) × 100]. Each treatment was assayed in 3–4 wells per experiment and the experiment was repeated 3 times in cultures of different cell passages. Data were analyzed by ANOVA."}, "[2]": {"test": "microsomal stability, human microsomes", "assay_type": "in vitro ADME", "details": "pooled human microsomes, pH 7.4; 60 min incubation with human microsomes, NADPH, 37 °C", "protocol": "(§1) The human and murine pooled microsomes employed were purchased from Tebu-Xenotech (Barcelona, Spain). The compound was incubated at 37 °C with the microsomes in a 50 mM phosphate buffer (pH = 7.4) containing 3 mM MgCl2, 1 mM NADP, 10 mM glucose-6-phosphate and 1 U/mL glucose-6-phosphate-dehydrogenase. Samples (75 µL) were taken from each well at 0, 10, 20, 40 and 60 min and transferred to a plate containing 4 °C 75 µL acetonitrile and 30 µL of 0.5% formic acid in water were added for improving the chromatographic conditions. The plate was centrifuged (46000 g, 30 min) and supernatants were taken and analyzed in a UPLC-MS/MS (Xevo-TQD, Waters) by employing a BEH C18 column and an isocratic gradient of 0.1% formic acid in water: 0.1% formic acid acetonitrile (60:40). The metabolic stability of the compounds was calculated from the logarithm of the remaining compounds at each of the time points studied."}, "[3]": {"system": "microglial BV2 cells activated with LPS", "test": "nitric oxide generation (nitrite, Griess) in LPS-activated BV2 microglial cells", "assay_type": "cell-based", "details": "LPS 0.1 or 1 μg/mL, 24 h", "protocol": "Inflammatory changes were determined by the measure of nitric oxide generation, as the endpoint of iNOS activation, in microglial BV2 cells. BV2 cells (HyperCLDB, Banca Biologica e Cell Factory, ICLC ATL 03001) were grown in RPMI 1640 medium, supplemented with L-glutamine 2 mM, gentamycin 50 µM and 10% FBS. For experiments, cells were seeded in 96-well plates at 2 × 10^5 cells/mL, 100 µL/well. […] After 1 h of incubation, the cells were treated with the pro-inflammatory chemical LPS (0.1 μg/mL or 1 μg/mL; strain E. coli […], Sigma-Aldrich, L-2654, batch #120M4028) and further incubated for 24 h. TPPU at 100 µM was also assayed as a reference anti-inflammatory compound. DMSO 0.1% was used as vehicle. Cells were maintained at 37 °C in a humidified incubator with 5% CO2 throughout the procedures. Nitric oxide released to the culture medium was measured by the colorimetric Griess reaction that detects nitrite (NO2^–), a stable reaction product of nitric oxide and molecular oxygen. Briefly, 50 µL of conditioned medium were incubated with 50 µL of Griess reagent for 10 min at room temperature. Optical density was measured at 540 nm. Nitrite concentration was determined from a sodium nitrite standard curve. Results were normalized by cell protein content in the well and expressed as a percentage of the average maximal values given by the pro-inflammatory agent (LPS 1 µg/mL). Each treatment was performed in 3–5 wells and the whole experiment was repeated 3–4 times in cultures of different cell passage. Data were analyzed by ANOVA followed by Tukey’s multiple comparisons test."}, "[4]": {"test": "microsomal stability, mouse microsomes", "assay_type": "in vitro ADME", "details": "pooled murine microsomes, pH 7.4; 60 min incubation with mouse microsomes, NADPH, 37 °C", "protocol": "as §1"}, "murine sEH": {"biological_target": "T1, murine sEH (Mus musculus, UniProt P34914)", "T1 construct": "made in house; host or cells: baculovirus expression system (insect cells implied)", "T1 sequence (P34914 1-554)": "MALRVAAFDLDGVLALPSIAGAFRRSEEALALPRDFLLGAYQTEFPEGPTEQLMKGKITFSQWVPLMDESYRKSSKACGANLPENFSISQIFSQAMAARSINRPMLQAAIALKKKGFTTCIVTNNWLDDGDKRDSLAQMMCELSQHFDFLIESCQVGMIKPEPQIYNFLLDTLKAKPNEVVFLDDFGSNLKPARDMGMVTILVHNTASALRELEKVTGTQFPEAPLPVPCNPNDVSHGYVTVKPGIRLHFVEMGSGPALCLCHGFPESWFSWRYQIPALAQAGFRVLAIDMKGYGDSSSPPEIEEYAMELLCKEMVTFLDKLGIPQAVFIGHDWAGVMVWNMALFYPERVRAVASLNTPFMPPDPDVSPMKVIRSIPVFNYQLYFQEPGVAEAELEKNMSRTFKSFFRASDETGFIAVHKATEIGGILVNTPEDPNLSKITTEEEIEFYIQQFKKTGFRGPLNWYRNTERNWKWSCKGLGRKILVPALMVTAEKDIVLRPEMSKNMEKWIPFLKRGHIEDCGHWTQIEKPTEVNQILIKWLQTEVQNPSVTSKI", "test": "fluorescent-based sEH inhibition assay, recombinant mouse sEH", "assay_type": "biochemical", "details": "baculovirus expressed recombinant mouse sEH, average of three replicates", "protocol": "The potency of all the new compounds as inhibitors of the human and murine sEH was tested using a previously reported sensitive fluorescent-based assay using baculovirus expressed recombinant human and mouse sEH [28]."}}}
{"smiles": "O=C(CC1CCN(c2ccc(C(=O)O)cc2)CC1)NC12CC3CC(F)(CC(C1)c1ccccc13)C2", "note": "[10c, 4-(4-(2-((9-Fluoro-5,6,8,9,10,11-hexahydro-7H-5,9:7,11-dimethanobenzo[9]annulen-7-yl)amino)-2-oxoethyl)piperidin-1-yl)benzoic Acid]", "values": [{"measurement": "cytotoxicity, percentage of cell death (PI staining)", "setting": "[1]", "result": "no cytotoxicity"}, {"measurement": "remaining at 1 h", "setting": "[2]", "result": 60, "unit": "%"}, {"measurement": "nitric oxide generation (nitrite levels) in presence of LPS", "setting": "[3]; compound at 50 µM", "result": "indistinguishable from control levels"}, {"measurement": "nitric oxide generation (nitrite levels) in presence of LPS", "setting": "[3]; compound at 100 µM", "result": "indistinguishable from control levels"}, {"measurement": "remaining at 1 h", "setting": "[4]", "result": 29, "unit": "%"}, {"measurement": "IC50", "setting": "murine sEH", "result": 0.7, "unit": "nM"}]}
